Measured values as given in publication PMC8557913, “Characterization of Phosphopantetheinyl Hydrolase from Mycobacterium tuberculosis” (Microbiology Spectrum, 2021).

Columns and labels:
PptH (Rv2795c) = PptH (Rv2795c) (Mycobacterium tuberculosis, UniProt I6YEE1); assay: biochemical
Sfp = biological target: T1, Sfp (Bacillus subtilis, UniProt P39135); assay: transfer of biotin-labelled Ppt to apo-carrier protein, streptavidin blot; type: biochemical; settings: labelled compound; co-substrate apo-AcpM (also PKS13 ACP, EcEntB, EcACP, KpACP, PaACP); 50 mM Tris-HCl pH 7.5, 15 mM MgCl2, 37°C
T1 sequence (P39135 1-224): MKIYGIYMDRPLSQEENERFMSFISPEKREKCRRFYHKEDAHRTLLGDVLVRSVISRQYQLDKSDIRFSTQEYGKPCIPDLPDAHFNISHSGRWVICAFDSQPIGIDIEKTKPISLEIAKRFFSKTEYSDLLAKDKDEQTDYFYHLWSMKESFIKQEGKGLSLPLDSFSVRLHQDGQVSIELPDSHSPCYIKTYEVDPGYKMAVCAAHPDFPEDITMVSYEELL

Sequence of PptH (Rv2795c) (I6YEE1 1-310): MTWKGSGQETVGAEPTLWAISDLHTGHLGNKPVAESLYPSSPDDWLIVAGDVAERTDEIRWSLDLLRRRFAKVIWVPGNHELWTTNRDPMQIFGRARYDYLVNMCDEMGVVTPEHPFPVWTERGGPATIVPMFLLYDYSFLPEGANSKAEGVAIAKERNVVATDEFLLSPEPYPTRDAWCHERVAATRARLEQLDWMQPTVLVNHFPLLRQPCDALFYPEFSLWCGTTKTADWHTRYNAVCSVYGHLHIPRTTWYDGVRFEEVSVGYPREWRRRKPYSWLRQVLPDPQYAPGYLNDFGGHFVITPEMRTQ

SMILES | IC50 (PptH (Rv2795c)) | transfer of biotin-labelled Ppt to apo-carrier protein, streptavidin blot (Sfp)
Nc1ncnc2c1ncn2[C@@H]1O[C@H](COP(=O)(O)O)[C@@H](O)[C@H]1O [AMP] | 456 µM | –
CC(C)(COP(=O)(O)OP(=O)(O)OC[C@H]1O[C@@H](n2cnc3c(N)ncnc32)[C@H](O)[C@@H]1OP(=O)(O)O)[C@@H](O)C(=O)NCCC(=O)NCCSCC(=O)NCCOCCOCCNC(=O)CCCC[C@@H]1SC[C@@H]2NC(=O)N[C@@H]21 [biotin-PEG-ACM-CoA] | – | Upon incubation of the *CoA probe with apo-AcpM and Sfp
